According to US10941132B2, “Pyrazole derivatives” (HUA MEDICINE (SHANGHAI) Ltd., priority 2016, dated 2021):
Where two headings read alike, the source gives them in different places.

Target: T1, recombinant rat mGluR5 (Rattus norvegicus, UniProt P31424)
T1 construct: expressed in transfected cells
Assay: Functional calcium flux assay (FLIPR), antagonist evaluation against glutamate-evoked [Ca2+]i increase
Format: cell-based
Conditions: HEK293 cells stably expressing recombinant rat mGluR5, 15 min incubation of test compound, then submaximal glutamate
Method: Functional Calcium Clux Assay Methodology
For functional assays, HEK293 cells stably expressing recombinant rat mGluR5 were seeded in 384-well plates and dye loaded using Fluo-8. Cells were then washed to remove the un-incorporated dye. Antagonist evaluation was performed following a 15 min incubation of the test compound followed by the addition of submaximal concentration of glutamate. Intracellular calcium ([Ca^2+]i) measurements were performed using a fluorometric imaging plate reader (FLIPR, Molecular Devices). The glutamate-evoked increase in [Ca^2′]i in the presence of the test compounds was compared to the response to glutamate alone (the positive control). Antagonist inhibition curves were fitted with a 4-parameter logistic equation giving IC50 values, and Hill coefficients using an iterative nonlinear curve fitting algorithm.
The tables below provide IC50 data in this assay. In the activity column, A=IC50>1,000 and ≤5,000 nM; B=IC50>500 and ≤1,000 nM and C=IC50≤500 nM.

[1] = Table 1, read-out: IC50 value (FLIPR assay)
[2] = Table 2, read-out: IC50 (FLIPR assay)

T1 sequence (P31424 21-1203): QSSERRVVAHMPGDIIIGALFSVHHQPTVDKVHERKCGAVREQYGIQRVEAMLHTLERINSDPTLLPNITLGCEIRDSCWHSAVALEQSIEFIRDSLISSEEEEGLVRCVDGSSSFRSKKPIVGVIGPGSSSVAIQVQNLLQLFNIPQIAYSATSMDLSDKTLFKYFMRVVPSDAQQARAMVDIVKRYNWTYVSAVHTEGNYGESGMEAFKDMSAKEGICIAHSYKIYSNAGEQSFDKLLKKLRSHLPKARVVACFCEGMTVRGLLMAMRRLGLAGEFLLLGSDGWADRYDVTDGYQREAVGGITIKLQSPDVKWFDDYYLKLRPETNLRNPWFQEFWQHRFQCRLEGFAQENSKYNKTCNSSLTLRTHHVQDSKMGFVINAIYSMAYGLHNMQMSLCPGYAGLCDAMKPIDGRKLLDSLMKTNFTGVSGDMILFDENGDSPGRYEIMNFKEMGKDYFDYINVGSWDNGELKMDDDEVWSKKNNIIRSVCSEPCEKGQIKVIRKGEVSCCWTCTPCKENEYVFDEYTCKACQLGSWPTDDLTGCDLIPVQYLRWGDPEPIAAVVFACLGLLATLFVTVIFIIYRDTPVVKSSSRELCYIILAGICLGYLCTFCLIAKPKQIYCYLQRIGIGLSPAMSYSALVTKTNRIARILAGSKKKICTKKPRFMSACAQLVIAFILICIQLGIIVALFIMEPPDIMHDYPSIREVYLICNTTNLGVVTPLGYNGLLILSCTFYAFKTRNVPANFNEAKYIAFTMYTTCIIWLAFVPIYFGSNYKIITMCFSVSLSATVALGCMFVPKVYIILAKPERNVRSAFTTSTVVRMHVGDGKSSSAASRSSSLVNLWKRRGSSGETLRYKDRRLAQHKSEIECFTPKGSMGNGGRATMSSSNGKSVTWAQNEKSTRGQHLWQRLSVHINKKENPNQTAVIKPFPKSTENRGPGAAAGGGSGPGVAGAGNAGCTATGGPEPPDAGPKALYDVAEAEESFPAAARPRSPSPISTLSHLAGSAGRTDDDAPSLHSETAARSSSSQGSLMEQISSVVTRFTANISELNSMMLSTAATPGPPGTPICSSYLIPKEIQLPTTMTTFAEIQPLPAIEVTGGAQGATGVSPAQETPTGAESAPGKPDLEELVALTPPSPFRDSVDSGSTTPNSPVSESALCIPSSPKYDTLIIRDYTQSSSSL

Row | IC50 [1] [µM] | IC50 [2] [µM] | SMILES
1 | 1 to 5 |  | Fc1cncc(-n2cc(C#Cc3ncccn3)c(Cl)n2)c1 [Compound 45, 2-((3-chloro-1-(5-fluoropyridin-3-yl)-1H-pyrazol-4-yl)ethynyl) pyrimidine]
2 | 1 to 5 |  | FC(F)(F)Oc1ccc(-n2cc(C#Cc3ccccc3)cn2)cc1 [Compound 89, 4-(phenylethynyl)-1-(4-(trifluoromethoxy)phenyl)-1H-pyrazole]
3 |  | 1 to 5 | Cc1cc(C#Cc2ncccn2)nn1-c1ccc(OC(F)(F)F)cc1 [Compound 133, 2-((5-methyl-1-(4-(trifluoromethoxy)phenyl)-1H-pyrazol-3-yl)ethynyl)pyrimidine]
4 | ≤ 0.5 |  | Fc1ccc(-n2cc(C#Cc3ccccc3)cn2)cc1 [Compound 81, 1-(4-fluorophenyl)-4-(phenylethynyl)-1H-pyrazole]
5 |  | 1 to 5 | Cc1cc(C#Cc2cccnc2)nn1-c1ccc(OC(F)(F)F)cc1 [Compound 132, 3-((5-methyl-1-(4-(trifluoromethoxy)phenyl)-1H-pyrazol-3-yl)ethynyl)pyridine]
6 | 1 to 5 |  | FC(F)(F)Oc1ccc(-n2cc(C#Cc3cccnc3)cn2)cc1 [Compound 91, 3-((1-(4-(trifluoromethoxy)phenyl)-H-pyrazol-4-yl)ethynyl)pyridine]
7 | ≤ 0.5 |  | COCCOc1ccc(-n2cc(C#Cc3ccccn3)cn2)cn1 [Compound 28, 2-(2-methoxyethoxy)-5-(4-(pyridin-2-ylethynyl)-1H-pyrazol-1-yl) pyridine]
8 | ≤ 0.5 |  | Cc1nn(-c2ccc(F)nc2)c(C)c1C#Cc1ccccn1 [Compound 24]
9 | ≤ 0.5 |  | COc1nn(-c2ccc(F)cc2)cc1C#Cc1ccccn1 [Compound 52, 2-((1-(4-fluorophenyl)-3-methoxy-1H-pyrazol-4-yl)ethynyl)pyridine]
10 | ≤ 0.5 |  | Fc1ccc(-n2cc(C#Cc3cnccn3)cn2)cc1 [Compound 88, 2-((1-(4-fluorophenyl)-1H-pyrazol-4-yl)ethynyl)pyrazine]
11 | 1 to 5 |  | Cc1nn(-c2ccc(OC(F)(F)F)cc2)c(C(F)(F)F)c1C#Cc1ccccn1 [Compound 13, 2-((3-methyl-1-(4-(trifluoromethoxy)phenyl)-5-(trifluoromethyl)-1H-pyrazol-4-yl)ethynyl) pyridine]
12 | ≤ 0.5 |  | FC(F)(F)Oc1ccc(-n2ncc(C#Cc3ccccn3)c2Cl)cc1 [Compound 21]
13 | ≤ 0.5 |  | Fc1ccc(-n2cc(C#Cc3ccnc(Cl)c3)cn2)cc1 [Compound 85, 2-chloro-4-((1-(4-fluorophenyl)-1H-pyrazol-4-yl)ethynyl)pyridine]
14 | 1 to 5 |  | COc1c(C#Cc2ccccn2)c(C)nn1-c1ccc(OC(F)(F)F)cc1 [Compound 10, 2-((3-methyl-5-methoxy-1-(4-(trifluoromethoxy)phenyl)-1H-pyrazol-4-yl)ethynyl) pyridine]
15 | ≤ 0.5 |  | Fc1ccc(-n2ncc(C#Cc3ccccn3)c2Cl)cn1 [Compound 18]
16 |  | ≤ 0.5 | N#Cc1cc(F)cc(-n2cc(Cl)c(C#Cc3ccccn3)n2)c1 [Compound 61, 3-(4-chloro-3-(pyridin-2-ylethynyl)-1H-pyrazol-1-yl)-5-fluorobenzonitrile]
17 | ≤ 0.5 |  | Cc1nn(-c2ccc(F)cc2)c(C(F)(F)F)c1C#Cc1ccccn1 [Compound 12, 2-((1-(4-fluorophenyl)-3-methyl-5-(trifluoromethyl)-1H-pyrazol-4-yl)ethyny) pyridine]
18 |  | ≤ 0.5 | Cc1cc(C#Cc2ccnc(Cl)c2)nn1-c1cc(F)cc(C#N)c1 [Compound 100, 3-(3-((2-chloropyridin-4-yl)ethynyl)-5-methyl-1H-pyrazol-1-yl)-5-fluorobenzonitrile]
19 | 1 to 5 |  | CN(C)CCOc1nn(-c2cc(F)cc(C#N)c2)cc1C#Cc1ccccn1 [Compound 53, 3-(3-(2-(dimethylamino)ethoxy)-4-(pyridin-2-ylethynyl)-1H-pyrazol-1-yl)-5-fluorobenzonitrile]
20 | 1 to 5 |  | FC(F)(F)Oc1ccc(-n2cc(C#Cc3ncccn3)c(Cl)n2)cc1 [Compound 41, 2-((3-chloro-1-(4-(trifluoromethoxy)phenyl)-1H-pyrazol-4-yl)ethynyl)pyrimidine]
21 |  | ≤ 0.5 | N#Cc1cc(F)cc(-n2ccc(C#Cc3cnccn3)n2)c1 [Compound 111, 3-fluoro-5-(3-(pyrazin-2-ylethynyl)-1H-pyrazol-1-yl)benzonitrile]
22 | ≤ 0.5 |  | COCCOc1c(C#Cc2ccccn2)cnn1-c1ccc(F)cc1 [Compound 56]
23 | ≤ 0.5 |  | Cc1nn(-c2ccc(F)cc2)c(C)c1C#Cc1ccncn1 [Compound 3, 4-((1-(4-fluorophenyl)-3,5-dimethyl-1H-pyrazol-4-yl)ethynyl) pyrimidine]
24 | ≤ 0.5 |  | FC(F)(F)Oc1ccc(-n2cc(C#Cc3ccccn3)c(Cl)n2)cc1 [Compound 40, 2-((3-chloro-1-(4-(trifluoromethoxy)phenyl)-1H-pyrazol-4-yl)ethynyl)pyridine]

Row | IC50 [1] [µM] | IC50 [2] [µM] | SMILES
25 |  | ≤ 0.5 | Cc1cc(C#Cc2ccncc2)nn1-c1cc(F)cc(C#N)c1 [Compound 102, 3-fluoro-5-(5-methyl-3-(pyridin-4-ylethynyl)-1H-pyrazol-1-yl) benzonitrile]
26 | ≤ 0.5 |  | COCCOc1nn(-c2cc(F)cc(C#N)c2)c(C)c1C#Cc1ccccn1 [Compound 29, 3-fluoro-5-(3-(2-methoxyethoxy)-5-methyl-4-(pyridin-2-ylethynyl)-1H-pyrazol-1-yl)benzonitrile]
27 | 1 to 5 |  | COCCOc1nn(-c2cc(F)cc(C#N)c2)c(C)c1C#Cc1ncccn1 [Compound 30, 3-fluoro-5-(3-(2-methoxyethoxy)-5-methyl-4-(pyrimidin-2-ylethynyl)-1H-pyrazol-1-yl)benzonitrile]
28 | 0.5 to 1 |  | COCCOc1nn(-c2ccc(F)cn2)cc1C#Cc1ccccn1 [Compound 64, S-fluoro-2-(3-(2-methoxyethoxy)-4-(pyridin-2-ylethynyl)-1H-pyrazol-1-yl)pyridine]
29 |  | ≤ 0.5 | Fc1ccc(-n2ccc(C#Cc3ccccn3)n2)nc1 [Compound 67, 5-fluoro-2-(3-(pyridin-2-ylethynyl)-1H-pyrazol-1-yl)pyridine]
30 |  | 1 to 5 | Fc1ccc(-n2ccc(C#Cc3ccccc3)n2)cc1 [Compound 113, 1-(4-fluorophenyl)-3-(phenylethynyl)-1H-pyrazole]
31 |  | 1 to 5 | FC(F)(F)Oc1ccc(-n2ccc(C#Cc3ncccn3)n2)cc1 [Compound 123, 2-((1-(4-(trifluoromethoxy)phenyl)-1H-pyrazol-3-yl)ethynyl) pyrimidine]
32 | 1 to 5 |  | Cc1c(C#Cc2ccccn2)c(N(C)C)nn1-c1cc(F)cc(C#N)c1 [Compound 15, 3-(3-(dimethylaminuteso)-5-methyl-4-(2-(pyridin-2-yl)ethynyl)-1H-pyrazol-1-yl)-5-fluorobenzonitrile]
33 |  | ≤ 0.5 | Fc1ccc(-n2ccc(C#Cc3ccnc(Cl)c3)n2)cc1 [Compound 116, 2-chloro-4-((1-(4-fluorophenyl)-1H-pyrazol-3-yl)ethynyl)pyridine]
34 |  | 0.5 to 1 | Cc1cn(-c2ccc(F)cn2)nc1C#Cc1ccccn1 [Compound 72, 5-fluoro-2-(4-methyl-3-(pyridin-2-ylethynyl)-1H-pyrazol-1-yl) pyridine]
35 |  | ≤ 0.5 | Cc1cc(C#Cc2cnccn2)nn1-c1cc(F)cc(C#N)c1 [Compound 103, 3-fluoro-5-(5-methyl-3-(pyrazin-2-ylethynyl)-1H-pyrazol-1-yl) Benzonitrile]
36 |  | 1 to 5 | Fc1ccc(-n2ccc(C#Cc3cccnc3)n2)cc1 [Compound 114, 3-((1-(4-fluorophenyl)-1H-pyrazol-3-yl)ethynyl)pyridine]
37 |  | 1 to 5 | Cc1cc(C#Cc2cnccn2)nn1-c1ccc(OC(F)(F)F)cc1 [Compound 134, 2-((5-methyl-1-(4-(trifluoromethoxy)phenyl)-H-pyrazol-3-yl)ethynyl)pyrazine]
38 | ≤ 0.5 |  | Cc1nn(-c2cc(F)cc(C#N)c2)c(C)c1C#Cc1ccccn1 [Compound 5]
39 |  | ≤ 0.5 | N#Cc1cc(F)cc(-n2ccc(C#Cc3ccccn3)n2)c1 [Compound 105, 3-fluoro-5-(3-(pyridin-2-ylethynyl)-1H-pyrazol-1-yl)benzonitrile]
40 | 1 to 5 |  | COCCOc1nn(-c2ccc(OC(F)(F)F)cc2)cc1C#Cc1ccccn1 [Compound 31, 2-((3-(2-methoxyethoxy)-1-(4-(trifluoromethoxy)phenyl)-1H-pyrazol-4-yl)ethynyl)pyridine]
41 | 1 to 5 |  | N#Cc1cc(F)cc(-n2cc(C#Cc3cnccn3)cn2)c1 [Compound 80, 3-fluoro-5-(4-(pyrazin-2-ylethynyl)-1H-pyrazol-1-yl)benzonitrile]
42 |  | 1 to 5 | Cc1cc(C#Cc2cnccn2)nn1-c1ccc(F)cc1 [Compound 129, 2-((1-(4-fluorophenyl)-5-methyl-1H-pyrazol-3-yl)ethynyl)pyrazine]
43 | ≤ 0.5 |  | COCCOc1ccc(-n2cc(C#Cc3ccccn3)cn2)cc1 [Compound 26, 2-((1-(4-(2-methoxyethoxy)phenyl)-1H-pyrazol-4-yl)ethynyl) pyridine]
44 | ≤ 0.5 |  | Fc1cncc(-n2cc(C#Cc3ccccn3)c(Cl)n2)c1 [Compound 44, 3-(3-chloro-4-(pyridin-2-ylethynyl)-1H-pyrazol-1-yl)-5-fluoropyridine]
45 |  | 1 to 5 | Cc1cc(C#Cc2cccnc2)nn1-c1ccc(F)cc1 [Compound 127, 3-((1-(4-fluorophenyl)-5-methyl-1H-pyrazol-3-yl)ethynyl)pyridine]
46 | ≤ 0.5 |  | Cc1nn(-c2ccc(F)cc2)c(C)c1C#Cc1ccccn1 [Compound 1]
47 |  | ≤ 0.5 | Cc1cc(C#Cc2ccccn2)nn1-c1ccc(F)cc1 [Compound 126]
